Laboratory results published in ChEMBL document CHEMBL1201862, “PubChem BioAssay data set” (2004).
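Where inhibition never reached the appropriate level, the endpoint shown equals the highest concentration tested. Otherwise, values were interpolated linearly from a five-concentration, 48-hour dose response in 96-well plates. GI50 is the concentration that inhibits growth by half.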 Active and inactive are the calls of the source. Cut-off read from the data, not from the text of the source: active = GI50 up to about 1.1 µM and inactive = higher.

Tests used:
Assay in all cases: inhibition of tumour cell growth, NCI panel, 48 h
A549 = tested on: A549
ACHN = tested on: ACHN
EKVX = tested on: EKVX
K562 = tested on: K562
M14 = tested on: M14
MCF7 = tested on: MCF7
MDA-N = tested on: MDA-N
NCI-H460 = tested on: NCI-H460
NCI/ADR-RES = tested on: NCI/ADR-RES
OVCAR-5 = tested on: OVCAR-5
PC-3 = tested on: PC-3
RPMI-8226 = tested on: RPMI-8226
RXF 393 = tested on: RXF 393
SW-620 = tested on: SW-620
UACC-62 = tested on: UACC-62
UO-31 = tested on: UO-31
HCC 2998 = tested on: HCC 2998
HL-60 = tested on: HL-60
MDA-MB-231 = tested on: MDA-MB-231

Measured: GI50

Cc1n2nc(N)sc2n[n+]1Cc1ccccc1
inactive: A549 70.6 µM | ACHN > 100 µM | EKVX 97.5 µM | K562 47.5 µM | M14 > 100 µM | MCF7 > 100 µM | MDA-N > 100 µM | NCI-H460 > 10 µM | NCI/ADR-RES > 100 µM | OVCAR-5 > 100 µM | PC-3 > 100 µM | RPMI-8226 > 100 µM | RXF 393 > 100 µM | SW-620 > 100 µM | UACC-62 47.4 µM | UO-31 > 100 µM

CC(C)(C)OC(=O)NCCNC(=O)OCc1ccccc1
inactive: A549 > 100 µM | ACHN > 100 µM | EKVX > 100 µM | HCC 2998 > 100 µM | K562 85.9 µM | M14 > 100 µM | MCF7 > 100 µM | MDA-N > 100 µM | NCI-H460 > 100 µM | NCI/ADR-RES > 100 µM | OVCAR-5 > 100 µM | PC-3 > 100 µM | RPMI-8226 > 100 µM | RXF 393 > 100 µM | SW-620 > 100 µM | UACC-62 > 100 µM | UO-31 > 100 µM

COc1cc(S(=O)(=O)Nc2ccc(-c3csc(N4C(=O)C(Cl)C4c4ccccc4O)n3)cc2)ccc1Cl (centres undefined)
inactive: A549 > 100 µM | ACHN 76.7 µM | EKVX 15.4 µM | HCC 2998 15.1 µM | HL-60 21.8 µM | K562 31 µM | M14 50.9 µM | MCF7 21 µM | MDA-N 27.5 µM | NCI-H460 47.5 µM | NCI/ADR-RES > 100 µM | OVCAR-5 47.8 µM | PC-3 42.3 µM | RPMI-8226 23.2 µM | RXF 393 19.9 µM | SW-620 32.3 µM | UACC-62 17 µM | UO-31 31.9 µM

CCOC(=O)c1ccc(Nc2nc3ccccc3nc2C(=O)OCC)cc1
inactive: A549 > 100 µM | ACHN > 100 µM | EKVX > 100 µM | HCC 2998 > 100 µM | HL-60 > 100 µM | K562 > 100 µM | M14 > 100 µM | MCF7 > 100 µM | MDA-MB-231 > 100 µM | MDA-N > 100 µM | NCI-H460 > 100 µM | NCI/ADR-RES > 100 µM | OVCAR-5 > 100 µM | RPMI-8226 85.9 µM | UACC-62 > 100 µM | UO-31 > 100 µM

CN1CCN(C(=O)CCC(=O)Nc2cc3c(c4ccccc24)-c2ccc4ccccc4c2C3)CC1
inactive: A549 1.96 µM | ACHN 2.12 µM | EKVX 1.67 µM | HCC 2998 1.37 µM | HL-60 2 µM | K562 1.91 µM | M14 1.45 µM | MCF7 1.51 µM | MDA-MB-231 1.26 µM | NCI-H460 1.82 µM | NCI/ADR-RES 2.21 µM | OVCAR-5 1.67 µM | PC-3 1.64 µM | RPMI-8226 1.96 µM | RXF 393 1.73 µM | UACC-62 1.7 µM | UO-31 1.65 µM
